Laboratory results from ChEMBL document CHEMBL1201862, “PubChem BioAssay data set” (2004).
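All cell lines were grown in 96-well plates and treated with compound for 48 hours. The concentration for 50% growth inhibition is given as GI50.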 Calls of active or inactive are those of the source. Rule as the data show it: active = GI50 up to about 1.1 µM and inactive = higher.

Assays:
Assay in all cases: DTP human tumour cell line panel, 48 h
[1] = test system: NCI-H23
[2] = test system: CAKI-1
[3] = test system: SF-268
[4] = test system: UACC-62
[5] = test system: NCI-H226
[6] = test system: HOP-92
[7] = test system: SF-295
[8] = test system: IGROV-1
[9] = test system: SW-620
[10] = test system: SF-539
[11] = test system: OVCAR-5
[12] = test system: U-251
[13] = test system: TK-10
[14] = test system: HOP-62
[15] = test system: RXF 393
[16] = test system: NCI/ADR-RES
[17] = test system: DU-145
[18] = test system: MCF7
[19] = test system: PC-3
[20] = test system: MDA-N

Compound | GI50 [1] | GI50 [2] | GI50 [3] | GI50 [4] | GI50 [5] | GI50 [6] | GI50 [7] | GI50 [8] | GI50 [9] | GI50 [10] | GI50 [11] | GI50 [12] | GI50 [13] | GI50 [14] | GI50 [15] | GI50 [16] | GI50 [17] | GI50 [18] | GI50 [19] | GI50 [20]
CNC(=O)OCc1nccc2c(C)c3[nH]c4ccc(OC)cc4c3cc12 | 4.74 µM (inactive) | 19.1 µM (inactive) | 10.5 µM (inactive) | 6.37 µM (inactive) | 1.73 µM (inactive) | 10.6 µM (inactive) | 8.75 µM (inactive) | 4.8 µM (inactive) | 3.03 µM (inactive) | 3.17 µM (inactive) | 22 µM (inactive) | 5.12 µM (inactive) | 19.3 µM (inactive) | 3.69 µM (inactive) | 3.16 µM (inactive) | – | – | – | – | –
N=c1oc2cc(O)ccc2cc1C(=O)Nc1ccccn1 | 80.9 µM (inactive) | 51.9 µM (inactive) | 65.2 µM (inactive) | 32.4 µM (inactive) | 90.6 µM (inactive) | > 100 µM (inactive) | > 100 µM (inactive) | 44.9 µM (inactive) | 77.1 µM (inactive) | 92.9 µM (inactive) | > 100 µM (inactive) | 44.5 µM (inactive) | 41.9 µM (inactive) | > 100 µM (inactive) | 26.6 µM (inactive) | 48.8 µM (inactive) | 25.4 µM (inactive) | 14.9 µM (inactive) | 40.1 µM (inactive) | –
C=CCN(CC=C)CC(C(C)=O)C(c1ccccc1)c1c(O)c2ccccc2oc1=O (stereo not given) | > 100 µM (inactive) | > 100 µM (inactive) | > 100 µM (inactive) | > 100 µM (inactive) | 45.7 µM (inactive) | > 100 µM (inactive) | 30.5 µM (inactive) | > 100 µM (inactive) | > 100 µM (inactive) | > 100 µM (inactive) | > 100 µM (inactive) | > 100 µM (inactive) | > 100 µM (inactive) | > 100 µM (inactive) | > 100 µM (inactive) | – | – | – | – | –
Nn1c(=O)n(Cc2ccccc2)n(-c2ccccc2)c1=O | > 100 µM (inactive) | > 100 µM (inactive) | > 100 µM (inactive) | > 100 µM (inactive) | > 100 µM (inactive) | > 100 µM (inactive) | > 100 µM (inactive) | > 100 µM (inactive) | > 100 µM (inactive) | > 100 µM (inactive) | > 100 µM (inactive) | > 100 µM (inactive) | > 100 µM (inactive) | > 100 µM (inactive) | > 100 µM (inactive) | – | – | – | – | –
Cc1ccccc1NC(=O)/C(=N/NC(=O)CC#N)C1C(=O)N(c2ccccc2)N=C1N (stereo not given) | > 100 µM (inactive) | > 100 µM (inactive) | > 100 µM (inactive) | > 100 µM (inactive) | > 100 µM (inactive) | 36.5 µM (inactive) | > 100 µM (inactive) | > 100 µM (inactive) | > 100 µM (inactive) | > 100 µM (inactive) | > 100 µM (inactive) | > 100 µM (inactive) | > 100 µM (inactive) | > 100 µM (inactive) | > 100 µM (inactive) | – | – | – | – | –
CC1(C)[C@@H]2CC[C@@]1(C)[C@H](O)[C@@H]2SCc1ccccc1 | 14.1 µM (inactive) | 25.1 µM (inactive) | 17.3 µM (inactive) | 10.2 µM (inactive) | 18.7 µM (inactive) | 13.7 µM (inactive) | 18.1 µM (inactive) | 18.7 µM (inactive) | 25.5 µM (inactive) | 17.8 µM (inactive) | 17 µM (inactive) | 17.1 µM (inactive) | 22.6 µM (inactive) | 17.9 µM (inactive) | 18.5 µM (inactive) | 15.8 µM (inactive) | 19.9 µM (inactive) | – | 20.8 µM (inactive) | 18.9 µM (inactive)
NC(=S)N/N=C1\NC(=O)/C(=C/c2ccc3c(c2)OCO3)S1 | 22.9 µM (inactive) | 25.3 µM (inactive) | 31.7 µM (inactive) | – | 23.5 µM (inactive) | 21.5 µM (inactive) | 36.5 µM (inactive) | 17.1 µM (inactive) | 31.8 µM (inactive) | 35.1 µM (inactive) | 24.2 µM (inactive) | 22.6 µM (inactive) | 40.8 µM (inactive) | 20.9 µM (inactive) | 21.1 µM (inactive) | 27.8 µM (inactive) | 28.2 µM (inactive) | 32.7 µM (inactive) | – | 27.5 µM (inactive)
CC(=O)Oc1cc(Cl)c(C)c2c1[C@H]1CC[C@]3(C)[C@@H](OC(C)=O)CC[C@H]3[C@@H]1CC2 | > 100 µM (inactive) | – | > 100 µM (inactive) | 35 µM (inactive) | > 100 µM (inactive) | > 100 µM (inactive) | > 100 µM (inactive) | > 100 µM (inactive) | > 100 µM (inactive) | > 100 µM (inactive) | > 100 µM (inactive) | 94.2 µM (inactive) | > 100 µM (inactive) | > 100 µM (inactive) | 74.8 µM (inactive) | > 100 µM (inactive) | > 100 µM (inactive) | 83.4 µM (inactive) | – | > 100 µM (inactive)
COc1cc(/C=N\O)nc(-c2ccccn2)c1 | 0.51 µM (active) | 0.303 µM (active) | 0.452 µM (active) | 0.448 µM (active) | 0.363 µM (active) | 1.44 µM (inactive) | 0.339 µM (active) | 0.202 µM (active) | 0.664 µM (active) | 0.575 µM (active) | 3.08 µM (inactive) | 0.553 µM (active) | > 30.8 µM (inactive) | 0.137 µM (active) | 0.363 µM (active) | 0.36 µM (active) | 0.236 µM (active) | 0.474 µM (active) | 2.43 µM (inactive) | –
O=C1OC(c2ccccc2)=N/C1=C\c1ccc(F)cc1 | > 100 µM (inactive) | > 100 µM (inactive) | 66.8 µM (inactive) | > 100 µM (inactive) | 35.6 µM (inactive) | > 100 µM (inactive) | – | 71.3 µM (inactive) | > 100 µM (inactive) | – | > 100 µM (inactive) | 89.7 µM (inactive) | > 100 µM (inactive) | 42.4 µM (inactive) | > 100 µM (inactive) | 46.6 µM (inactive) | > 100 µM (inactive) | – | > 100 µM (inactive) | > 100 µM (inactive)
N#CI1OC(C(F)(F)F)(C(F)(F)F)c2ccccc21 | 18.6 µM (inactive) | 14.1 µM (inactive) | 17.8 µM (inactive) | 18.4 µM (inactive) | 17.8 µM (inactive) | 16.3 µM (inactive) | 45.9 µM (inactive) | 16.4 µM (inactive) | > 10 µM (inactive) | 19.9 µM (inactive) | 19.2 µM (inactive) | 21.2 µM (inactive) | 19 µM (inactive) | 57.5 µM (inactive) | 16.8 µM (inactive) | 15.8 µM (inactive) | 18.6 µM (inactive) | 18.9 µM (inactive) | 15.8 µM (inactive) | –
CC1=CP(=O)(OC(C)C)CC(C)=C1Cl (stereo not given) | > 100 µM (inactive) | > 100 µM (inactive) | 82.6 µM (inactive) | > 100 µM (inactive) | > 100 µM (inactive) | > 100 µM (inactive) | > 100 µM (inactive) | > 100 µM (inactive) | 70.5 µM (inactive) | 95.1 µM (inactive) | > 100 µM (inactive) | > 100 µM (inactive) | > 100 µM (inactive) | > 100 µM (inactive) | > 100 µM (inactive) | – | – | – | – | –
COc1ccc2[nH]c3c([N+](=O)[O-])ccc(NCCCN(C)C)c3/c(=N/CCCN(C)C)c2c1 | 1.56 µM (inactive) | 2.07 µM (inactive) | 1.64 µM (inactive) | > 10 µM (inactive) | – | 3.33 µM (inactive) | 1.63 µM (inactive) | 1.86 µM (inactive) | 1.63 µM (inactive) | – | – | – | 2.36 µM (inactive) | 1.4 µM (inactive) | 0.631 µM (active) | – | 3.24 µM (inactive) | 0.743 µM (active) | 1.06 µM (active) | –
COC(=O)C1=CC2C=CC(C1C(=O)OC)C1C(C(=O)OC)=C(C(=O)OC)C(C(=O)OC)=C(C(=O)OC)C21OC (stereo not given) | > 100 µM (inactive) | > 100 µM (inactive) | > 100 µM (inactive) | > 100 µM (inactive) | > 100 µM (inactive) | > 100 µM (inactive) | > 100 µM (inactive) | > 100 µM (inactive) | > 100 µM (inactive) | > 100 µM (inactive) | > 100 µM (inactive) | > 100 µM (inactive) | > 100 µM (inactive) | > 100 µM (inactive) | > 100 µM (inactive) | – | – | – | – | –
CCN(CC)CCCNc1nccc2c(C)c3[nH]c4ccncc4c(=O)c3cc12 | 1.95 µM (inactive) | 1.91 µM (inactive) | 0.643 µM (active) | 1.53 µM (inactive) | 2.24 µM (inactive) | 1.75 µM (inactive) | 3.64 µM (inactive) | 2.93 µM (inactive) | 1.84 µM (inactive) | 2.45 µM (inactive) | 3.72 µM (inactive) | 2.19 µM (inactive) | 3.18 µM (inactive) | 3.11 µM (inactive) | 0.558 µM (active) | – | – | – | – | –
O=S1(=O)N2CN3CN(C2)CN1C3 | 20.5 µM (inactive) | 205 µM (inactive) | > 58.3 µM (inactive) | 22.6 µM (inactive) | 28.1 µM (inactive) | > 100 µM (inactive) | 23.8 µM (inactive) | 278 µM (inactive) | 23.7 µM (inactive) | > 100 µM (inactive) | 208 µM (inactive) | 331 µM (inactive) | 286 µM (inactive) | 234 µM (inactive) | 56.9 µM (inactive) | > 100 µM (inactive) | – | 56.8 µM (inactive) | – | –
